Laboratory results as given in article PMC12356538, “Targeting the SARS-CoV‑2 RNA Translation Initiation Element SL1 by Molecules of Low Molecular Weight” (Journal of the American Chemical Society, 2025).

Experiments:
[1] = system: SARS-CoV-2 SL1 RNA (SL1 wt); type: binding; conditions: for wLOGSY factor / T2 reduction [%] / CSP [Hz]: 10 μM SL1 wt, 200 μM ligand; for wLOGSY factor / T2 reduction [%]: pH 6.2; for T2 reduction [%]: CPMG 100 vs 5 ms; for Rank: FBS ranking from summed ranks of CSP, wLOGSY and T2 results; for Rank / CSP values relative to A.2: SL1 wt; for CSP [Hz]: ligand 1H CSP, [RNA]:[ligand] 1:20, pH 6.2; for CSP values relative to A.2: ligand CSP
[2] = system: SL1 Δbulge RNA; type: binding, SARS-CoV-2
[3] = pH 6.2
[4] = target: SL1 wt RNA; assay: NMR-based KD estimation, ligand-detected 1D-1H titration; type: binding, SARS-CoV-2; conditions: Suppl. Table 7, ligand constant at 100, SL1 wt RNA concentration 0-200; for Kd: read-out: KDest

SMILES: CN(C)CC(=O)Nc1nc2ccc([N+](=O)[O-])cc2s1 [A.14]
- wLOGSY factor [1]: 0.46
- T2 reduction [%] [1]: 100.00%
- Rank [1]: 9
- CSP [Hz] [1]: 22.20 Hz
- CSP values relative to A.2 [1]: 2–3 times
- FBS result (CSP, wLOGSY, T2 reduction) in words [2]: no effects
- solubility, in words [3]: poor solubility

SMILES: COc1ccc2nc(NC(=O)CN3CCC[C@@H](NCCN(C)c4cccc(O)c4)C3)sc2c1 [A.50]
- wLOGSY factor [1]: 0.00
- T2 reduction [%] [1]: 72.85%
- Rank [1]: 33
- CSP [Hz] [1]: 15.17 Hz
- FBS result (CSP, wLOGSY, T2 reduction) in words [2]: no effects
- KDest [4]: ambiguous

SMILES: COc1cc(OC)c2nc(NC(=O)CN3CCN(C)CC3)sc2c1 [A.56]
- wLOGSY factor [1]: 0.00
- T2 reduction [%] [1]: 100.00%
- Rank [1]: 7
- CSP [Hz] [1]: 31.95 Hz
- FBS result (CSP, wLOGSY, T2 reduction) in words [2]: no effects
- Kd [4]: 75.3 µM

SMILES: CCN(CCN[C@H]1CCCN(CC(=O)Nc2nc3ccc(OC)cc3s2)C1)c1cccc(O)c1 [A.49]
- wLOGSY factor [1]: 0.00
- T2 reduction [%] [1]: 72.85%
- Rank [1]: 34
- CSP [Hz] [1]: 15.15 Hz
- FBS result (CSP, wLOGSY, T2 reduction) in words [2]: no effects
- Kd [4]: 530 µM

SMILES: COc1cc(OC)c2nc(NC(=O)CN(C)C)sc2c1 [A.15]
- wLOGSY factor [1]: 2.66
- T2 reduction [%] [1]: 36.00%
- Rank [1]: 16
- CSP [Hz] [1]: 31.92 Hz
- CSP values relative to A.2 [1]: 2–3 times
- CSP [Hz] [2]: 9.18 Hz
- Rank [2]: 2
- T2 reduction [%] [2]: 84.62%
- wLOGSY factor [2]: 0.47
- Kd [4]: 108 µM
